Assay results reported in patent US20240343704A1, “HALO-SUBSTITUTED AMINO PYRIDINE COMPOUNDS AS INHIBITORS OF THE HAEMATOPOIETIC PROGENITOR KINASE 1 (HPK1)” (priority 2021, published 2024).

Key:
[1] = biological target: T1, Recombinant (1-346) HPK1 (h) (Homo sapiens, UniProt Q92918); assay: HPK1 Human STE Kinase Enzymatic Radiometric Assay; type: biochemical; settings: read-out: HPK1 IC50 nM Range*
T1 construct: Recombinant (1-346) HPK1 (h) is incubated with 8 mM MOPS pH 7.0
T1 sequence (Q92918 1-346): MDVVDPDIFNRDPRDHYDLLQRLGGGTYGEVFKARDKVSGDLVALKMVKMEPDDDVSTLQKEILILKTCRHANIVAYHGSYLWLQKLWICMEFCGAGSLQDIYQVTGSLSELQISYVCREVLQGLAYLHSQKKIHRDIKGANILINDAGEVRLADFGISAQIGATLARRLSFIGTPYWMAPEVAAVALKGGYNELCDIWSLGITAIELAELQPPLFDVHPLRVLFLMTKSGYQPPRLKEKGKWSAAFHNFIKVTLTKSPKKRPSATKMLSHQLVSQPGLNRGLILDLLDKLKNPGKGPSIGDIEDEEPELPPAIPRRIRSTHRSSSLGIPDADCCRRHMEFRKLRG
Description: A stock solution of 10 mM of test compound is prepared in DMSO. The compound plate was prepared by 3-fold and 9-point serial dilutions. […] The reaction is initiated by The addition of the Mg/ATP mix. After incubation for 40 minutes at RT, the reaction is stopped by the addition of phosphoric acid to a concentration of 0.5%.

Lck (h) = Lck (h) (Homo sapiens, UniProt P06239); assay: Lck Human  Kinase Enzymatic Radiometric Assay; type: biochemical; settings: read-out: Lck IC50 nM Range*
Procedure, shortened: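 Substrate 33P-incorporation measured by scintillation counting after spotting on P30 filtermat and phosphoric acid washes. Human Lck reacted 40 min at RT in 50 mM Tris pH 7.5 with 10 mM MgAcetate, [gamma-33P]-ATP, 250 uM Cdc2 peptide, 0.1 mM EGTA and 0.1 mM Na3VO4.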

Sequence of Lck (h) (P06239 whole entry): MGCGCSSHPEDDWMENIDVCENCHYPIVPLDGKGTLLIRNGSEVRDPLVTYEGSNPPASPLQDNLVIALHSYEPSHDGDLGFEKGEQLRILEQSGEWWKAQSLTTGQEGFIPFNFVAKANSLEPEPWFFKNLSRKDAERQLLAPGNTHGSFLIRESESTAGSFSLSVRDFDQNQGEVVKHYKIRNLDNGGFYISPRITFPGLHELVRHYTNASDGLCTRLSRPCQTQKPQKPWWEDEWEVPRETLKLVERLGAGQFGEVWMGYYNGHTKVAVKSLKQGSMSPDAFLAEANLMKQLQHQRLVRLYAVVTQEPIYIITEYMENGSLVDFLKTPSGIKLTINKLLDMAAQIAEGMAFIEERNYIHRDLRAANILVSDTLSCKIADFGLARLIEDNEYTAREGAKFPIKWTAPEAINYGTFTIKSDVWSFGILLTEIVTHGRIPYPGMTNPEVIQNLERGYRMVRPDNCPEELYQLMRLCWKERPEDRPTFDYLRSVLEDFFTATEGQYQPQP

Row | Structure (SMILES) | IC50 [1] [nM] | IC50 (Lck (h)) [nM]
1 | CC(C)N1CCOCC1c1ccc(-c2cc(-c3ccc4c(c3)CCNC4=O)c(N)nc2F)cc1 (centres unmarked) [I-132, 6-(2-amino-6-fluoro-5-(4-(4-isopropylmorpholin-3-yl)phenyl)pyridin-3-yl)-3,4-dihydroisoquinolin-1(2H)-one] | 0.1 to 10 | > 1000
2 | Nc1nc(F)c(-c2ccc(C3COCCN3CC(F)F)cc2)cc1-c1ccc2c(c1)CCNC2=O (centres unmarked) [I-133, 6-(2-amino-5-(4-(4-(2,2-difluoroethyl)morpholin-3-yl)phenyl)-6-fluoropyridin-3-yl)-3,4-dihydroisoquinolin-1(2H)-one] | 0.1 to 10 | > 1000
3 | COCCN1CCOCC1c1ccc(-c2cc(-c3ccc4c(c3)CCNC4=O)c(N)nc2F)cc1 (centres unmarked) [I-134, 6-(2-amino-6-fluoro-5-(4-(4-(2-methoxyethyl)morpholin-3-yl)phenyl)pyridin-3-yl)-3,4-dihydroisoquinolin-1(2H)-one] | 0.1 to 10 | > 1000
4 | Nc1nc(F)c(-c2ccc([C@]34CNC[C@H]3C4)cc2)cc1-c1ccc2c(c1)CCNC2=O [I-135, 6-(5-(4-((1R,5S)-3-azabicyclo[3.1.0]hexan-1-yl)phenyl)-2-amino-6-fluoropyridin-3-yl)-3,4-dihydroisoquinolin-1(2H)-one] | 0.1 to 10 | > 1000
5 | CC(C)[C@H]1CN(c2ccc(-c3cc(-c4ccc5c(c4)CCNC5=O)c(N)nc3Cl)cc2)CCO1 [I-136, (S)-6-(2-amino-6-chloro-5-(4-(2-isopropylmorpholino)phenyl)pyridin-3-yl)-3,4-dihydroisoquinolin-1(2H)-one] | 101 to 1000 | > 1000
6 | CC(C)[C@@H]1CN(c2ccc(-c3cc(-c4ccc5c(c4)CCNC5=O)c(N)nc3Cl)c(F)c2)CCO1 [I-137, (R)-6-(2-amino-6-chloro-5-(2-fluoro-4-(2-isopropylmorpholino)phenyl)pyridin-3-yl)-3,4-dihydroisoquinolin-1(2H)-one] | 11 to 100 | > 1000
7 | Nc1nc(F)c(-c2ccc(C3=CCN(CCO)CC3)cc2)cc1-c1ccc2c(c1)CCNC2=O [I-138, 6-(2-amino-6-fluoro-5-(4-(1-(2-hydroxyethyl)-1,2,3,6-tetrahydropyridin-4-yl)phenyl)pyridin-3-yl)-3,4-dihydroisoquinolin-1(2H)-one] | 0.1 to 10 | > 1000
8 | COCCN1CC=C(c2ccc(-c3cc(-c4ccc5c(c4)CCNC5=O)c(N)nc3F)cc2)CC1 [I-139, 6-(2-amino-6-fluoro-5-(4-(1-(2-methoxyethyl)-1,2,3,6-tetrahydropyridin-4-yl)phenyl)pyridin-3-yl)-3,4-dihydroisoquinolin-1(2H)-one] | 0.1 to 10 | > 1000
9 | COCCN1C[C@H]2C[C@@]2(c2ccc(-c3cc(-c4ccc5c(c4)CCNC5=O)c(N)nc3F)cc2)C1 [I-140, 6-(2-amino-6-fluoro-5-(4-((1R,5S)-3-(2-methoxyethyl)-3-azabicyclo[3.1.0]hexan-1-yl)phenyl)pyridin-3-yl)-3,4-dihydroisoquinolin-1(2H)-one] | 0.1 to 10 | > 1000
10 | CC(C)N1C[C@H]2C[C@@]2(c2ccc(-c3cc(-c4cc5c(cc4F)C(=O)NCC5)c(N)nc3F)cc2)C1 [I-141, 6-(2-amino-6-fluoro-5-(4-((1R,5S)-3-isopropyl-3-azabicyclo[3.1.0]hexan-1-yl)phenyl)pyridin-3-yl)-7-fluoro-3,4-dihydroisoquinolin-1(2H)-one] | 0.1 to 10 | > 1000
11 | CC(C)N1C[C@@H]2C[C@]2(c2ccc(-c3cc(-c4cc5c(cc4F)C(=O)NCC5)c(N)nc3F)cc2)C1 [I-142, 6-(2-amino-6-fluoro-5-(4-((1S,5R)-3-isopropyl-3-azabicyclo[3.1.0]hexan-1-yl)phenyl)pyridin-3-yl)-7-fluoro-3,4-dihydroisoquinolin-1(2H)-one] | 0.1 to 10 | > 1000
12 | CC(C)C(=O)N1C[C@H]2C[C@@]2(c2ccc(-c3cc(-c4ccc5c(c4)CCNC5=O)c(N)nc3F)cc2)C1 [I-143, 6-(2-amino-6-fluoro-5-(4-((1R,5S)-3-isobutyryl-3-azabicyclo[3.1.0]hexan-1-yl)phenyl)pyridin-3-yl)-3,4-dihydroisoquinolin-1(2H)-one] | 0.1 to 10 | > 1000
13 | C[C@H]1CC(Oc2ccc(-c3cc(-c4ccc5c(c4)CCNC5=O)c(N)nc3F)cc2)C[C@H](C)N1 (stereo partly drawn) [I-144, 6-(2-amino-5-(4-(((2S,6S)-2,6-dimethylpiperidin-4-yl)oxy)phenyl)-6-fluoropyridin-3-yl)-3,4-dihydroisoquinolin-1(2H)-one] | 0.1 to 10 | 101 to 1000
14 | Nc1nc(F)c(-c2ccc(OC3CCNCC3)c3c2OCO3)cc1-c1ccc2c(c1)CCNC2=O [I-145, 6-(2-amino-6-fluoro-5-(7-(piperidin-4-yloxy)benzo[d][1,3]dioxol-4-yl)pyridin-3-yl)-3,4-dihydroisoquinolin-1(2H)-one] | 0.1 to 10 | > 1000
15 | Nc1nc(F)c(-c2ccc(OC3CNC3)cc2)cc1-c1ccc2c(c1)CCNC2=O [I-146, 6-(2-amino-5-(4-(azetidin-3-yloxy)phenyl)-6-fluoropyridin-3-yl)-3,4-dihydroisoquinolin-1(2H)-one] | 11 to 100 | > 1000
16 | CC1(C)CC(Oc2ccc(-c3cc(-c4ccc5c(c4)CCNC5=O)c(N)nc3F)cc2)CCN1 (centres unmarked) [I-147, 6-(2-amino-5-(4-((2,2-dimethylpiperidin-4-yl)oxy)phenyl)-6-fluoropyridin-3-yl)-3,4-dihydroisoquinolin-1(2H)-one] | 0.1 to 10 | > 1000
17 | Nc1nc(F)c(-c2ccc(OC3CCNCC3)c(F)c2F)cc1-c1ccc2c(c1)CCNC2=O [I-148, 6-(2-amino-5-(2,3-difluoro-4-(piperidin-4-yloxy)phenyl)-6-fluoropyridin-3-yl)-3,4-dihydroisoquinolin-1(2H)-one] | 11 to 100 | > 1000
18 | Nc1nc(F)c(-c2cc(F)c(OC3CCNCC3)cc2F)cc1-c1ccc2c(c1)CCNC2=O [I-149, 6-(2-amino-5-(2,5-difluoro-4-(piperidin-4-yloxy)phenyl)-6-fluoropyridin-3-yl)-3,4-dihydroisoquinolin-1(2H)-one] | 11 to 100 | > 1000
19 | COc1cc(OC2CCNCC2)ccc1-c1cc(-c2ccc3c(c2)CCNC3=O)c(N)nc1F [I-150, 6-(2-amino-6-fluoro-5-(2-methoxy-4-(piperidin-4-yloxy)phenyl)pyridin-3-yl)-3,4-dihydroisoquinolin-1(2H)-one] | 11 to 100 | > 1000
20 | COc1cc(-c2cc(-c3ccc4c(c3)CCNC4=O)c(N)nc2F)ccc1OC1CCNCC1 [I-151, 6-(2-amino-6-fluoro-5-(3-methoxy-4-(piperidin-4-yloxy)phenyl)pyridin-3-yl)-3,4-dihydroisoquinolin-1(2H)-one] | 11 to 100 | > 1000
21 | Nc1nc(F)c(-c2ccc(C3CCN(C4COC4)CC3)cc2)cc1-c1ccc2c(c1)CCNC2=O [I-152, 6-(2-amino-6-fluoro-5-(4-(1-(oxetan-3-yl)piperidin-4-yl)phenyl)pyridin-3-yl)-3,4-dihydroisoquinolin-1(2H)-one] | 0.1 to 10 | > 1000
22 | Nc1nc(F)c(-c2ccc(C3CCCCN3C3COC3)cc2)cc1-c1ccc2c(c1)CCNC2=O (centres unmarked) [I-153, 6-(2-amino-6-fluoro-5-(4-(1-(oxetan-3-yl)piperidin-2-yl)phenyl)pyridin-3-yl)-3,4-dihydroisoquinolin-1(2H)-one] | 11 to 100 | > 1000
